The test system of this test is γ-secretase. The experiment in a line: Cellular γ-secretase assay (inhibition of Aβ42 secretion, AlphaLisa). In kind it is cell-based. Conditions: human neuroglioma H4 cells overexpressing human APP695 Swedish double mutation, 24 h compound incubation. The procedure: Human neuroglioma H4 cells overexpressing human APP695 with the Swedish double mutation (K595N/M596L) were plated at 30,000 cells/well/100 μL in 96-well plates in IMDM containing 10% FCS, 0.2 mg/L Hygromycin B and incubated at 37° C., 5% CO2. 3-4 h post plating, compounds are a diluted in media and 50 μL is added as […] concentrate to achieve the final concentration. Compound incubation is performed for 24 h. Final doses typically range from 4 μM down to 0.0013 μM in half-log steps resulting in an eight-point dose response curve.
Appropriate controls using vehicle only and reference compound were applied to this assay. The final concentration of Me2SO was 0.4%.
After incubation at 37° C., 5% CO2, the supernatant was subjected to quantification of secreted Aβ42 by the means of an AlphaLisa assay kit (Human Amyloid beta 1-42 Kit: Cat # AL203C, Perkin Elmer). 20 μL of the cell culture supernatant was transferred to an assay plate. Then 10 μL, of a mixture of the AlphaLisa coupled capture antibody and the biotinylated detection antibody was added and incubated for 3 h at RT while softly shaking the assay plate. After a further addition of 20 μL of the Donor beads the assay plate was incubated for 30 min at RT and constant shaking without exposure to direct light. The assay plate was then read on a Paradigm AlphaLisa Reader using the build-in program with excitation at 680 nm and emission at 570 nm. The measured signals were then used to calculate IC50 values for inhibition of Aβ42 secretion by nonlinear regression fit analysis using XLfit 5.3 software (from IDBS company).

For the molecule `COc1cc(N2C[C@H]3CC[C@@H](C2)[C@@H]3Nc2nc3n(n2)CCO[C@@H]3c2cc(F)cc(Cl)c2)ccn1` [Example 29, (8R)-8-(3-chloro-5-fluoro-phenyl)-N-[(1R,5S)-3-(2-methoxy-4-pyridyl)-3-azabicyclo[3.2.1]octan-8-yl]-6,8-dihydro-5H-[1,2,4]triazolo[5,1-c][1,4]oxazin-2-amine], the midpoint of inhibition, the IC50, lay at 11.2 nM.

Broadly, the IC50 is the point on the concentration scale where inhibition reaches its midpoint. Higher therefore signals lower potency.

These data come from US12084461B2, “Bicyclic heteroaryl derivatives” (Hoffmann-La Roche Inc., priority 2018, dated 2024).
